From ChEMBL document CHEMBL5291721, “A preclinical secondary pharmacology resource illuminates target-adverse drug reaction associations of marketed drugs” (Nat Commun, 2023)

Molecular target: T1, Muscarinic acetylcholine receptor M1 (Homo sapiens, UniProt P11229)
T1 sequence (P11229 whole entry): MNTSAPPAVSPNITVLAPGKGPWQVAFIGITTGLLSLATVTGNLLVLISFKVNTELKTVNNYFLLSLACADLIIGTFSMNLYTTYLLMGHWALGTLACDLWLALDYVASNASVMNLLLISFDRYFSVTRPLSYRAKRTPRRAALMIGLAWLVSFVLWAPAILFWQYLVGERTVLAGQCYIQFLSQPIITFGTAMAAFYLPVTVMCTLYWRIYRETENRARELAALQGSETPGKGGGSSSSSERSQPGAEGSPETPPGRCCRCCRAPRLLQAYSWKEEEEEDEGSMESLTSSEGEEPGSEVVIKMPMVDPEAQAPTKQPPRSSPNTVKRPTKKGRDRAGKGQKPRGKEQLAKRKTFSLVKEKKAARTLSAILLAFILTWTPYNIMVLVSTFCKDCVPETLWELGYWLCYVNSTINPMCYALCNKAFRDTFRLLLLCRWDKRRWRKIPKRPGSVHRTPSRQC
Assay type: functional, cell-based
Also: assay procedure not described here.

`CCOC(=O)C1=C[C@@H](OC(CC)CC)[C@H](NC(C)=O)[C@@H](N)C1` [OSELTAMIVIR] was tested, and the AC50 was > 30 µM.

With `Cc1ccccc1C(=O)Nc1ccc(C(=O)N2CCCC(N(C)C)c3ccccc32)cc1` (stereo not drawn) [MOZAVAPTAN] the AC50 was 23.7 µM.

For `C[C@@H]1C[C@H]2[C@@H]3CCC4=CC(=O)C=C[C@]4(C)[C@@]3(Cl)[C@@H](O)C[C@]2(C)[C@@]1(OC(=O)c1ccco1)C(=O)CCl` [MOMETASONE FUROATE], the AC50 was > 30 µM.
